Tests used:
[1] = test system: G-protein coupled muscarinic acetylcholine receptors; test: Acetylcholine challenge of HEK 293 cells co-transfected with TetO-G-CaMP2 and CMV-VP22-tTA, G-CaMP2 fluorescence; format: cell-based, human; conditions: 10 μM acetylcholine, HEK 293 TetO-G-CaMP2 + CMV-VP22-tTA, excited at 488 nm
Method: Cells co-transfected with the two plasmids show fluorescence, while cells with only one of the plasmids, or neither, are not fluorescent (Control, FIG. 1A). The addition of 10 μM acetylcholine (ACH) induces a subpopulation of cells to respond with increases in fluorescence (FIG. 1B). Acetylcholine activates G-protein coupled muscarinic acetylcholine receptors and mobilizes intracellular calcium. Arrows point to three of the responsive cells (a, b, and c of both FIGS. 1A and 1B).
(AFU: artificial fluorescence unit).
Human embryonic kidney cells (HEK 293) were co-transfected with TetO-G-CaMP2 and a construct containing a tetracycline transactivator protein under the control of a ubiquitous promoter (CMV-VP22-tTA). […] The change in fluorescence indicated proper function of the G-CaMP2 sensor combined with the tetracycline inducible system.

[2] = test system: glomeruli / sensory neurons of the olfactory bulb; test: Odor stimulation of OMP-tTA-G-CaMP2 compound transgenic mice, fluorescence imaging of olfactory bulb; format: in vivo, mouse; conditions: for subset of sensory neurons / glomeruli activated by odor: different odors alone or combined, FIGS. 9 and 12; for activation of G-CaMP2 fluorescence in glomeruli by odor: odor delivered to the nose, thinned skull, FIG. 5; for course of G-CaMP2 intensity as the activation sequence progressed: FIGS. 10E and 11E; for sequence of glomeruli activation over length of odor exposure: FIGS. 10 and 11
Method: The compound transgenic mice (“transgenic mice”) containing the G-CaMP2 indicator targeted to the olfactory neurons may be used to evaluate neuron stimulation and map the signals sent in the brain. The response of sensory neurons was analyzed by stimulating transgenic mice with odor of varying concentrations. After anesthetizing mice with an injection of ketamine, the skin over the olfactory bulb was removed and the underlying skull covering the olfactory bulb was surgically thinned. The mice were then secured on an imaging plate and placed underneath a fluorescent microscope for imaging analysis. Background fluorescence was detected before odor stimulation (FIG. 5A). […] Amyl Acetate of various concentrations was also delivered to the nose of the animals using a custom made olfactometer. […] Odor delivery excited the sensory neurons, which generated action potentials that reached both olfactory bulbs.
The concentration of odor presented also activated glomeruli in a dose dependent manner (FIGS. 12C and 12D).
Animals are anesthetized with Ketamin/Xylazine cocktail and the righting reflex of the hind limbs are tested prior to surgery. Once deeply anesthetized, the hair over the head is shaved with a razor blade and a midline incision is made in the skin covering the skull to expose the olfactory bulb. For direct imaging, a head holder is glued to the bone and the animal is mounted to the microscope stage with the olfactory bulb region positioned right under the lens. (FIGS. 9 and 10). For bone thinning imaging, micro dental tools wet with saline are used to scrape the surface of the bone covering the olfactory bulb. Occasional air puffs are used to cool the thinning surface to prevent heat damage of the brain tissue. We normally stop when the bone can be indented by the gentle tough of a forceps tip, which is about 50 μm thick. The surface is then gently cleaned with saline and the head holder is attached for mounting the animal to the microscope.

## CC(=O)OCC[N+](C)(C)C [acetylcholine]
[1]; FIG. 2A
  increase in fluorescence, cell A: approximately 90 AFU
[1]; FIG. 2B
  increase in fluorescence, cell B: approximately 95 AFU
[1]; FIG. 2C
  increase in fluorescence, cell C: approximately 50 AFU

## CCCCCOC(C)=O [amyl acetate]
[2]
  subset of sensory neurons / glomeruli activated by odor: activated different neurons
  activation of G-CaMP2 fluorescence in glomeruli by odor: several glomeruli activating G-CaMP2 fluorescence
[2]; various concentrations, olfactometer, FIG. 6
  response of right and left olfactory bulbs to various odor concentrations: both the right and left olfactory bulbs were similarly stimulated

## CCCC=O [butyraldehyde]
[2]
  course of G-CaMP2 intensity as the activation sequence progressed: continued to increase
  sequence of glomeruli activation over length of odor exposure: sequentially activated glomeruli
  subset of sensory neurons / glomeruli activated by odor: activated

## CCCCCC(=O)O [hexanoic acid]
[2]
  subset of sensory neurons / glomeruli activated by odor: activated

## CCCCCCCC=O [octanal]
[2]
  course of G-CaMP2 intensity as the activation sequence progressed: decrease in G-CaMP2 expression
  sequence of glomeruli activation over length of odor exposure: activated several different glomeruli sequentially
  activation of G-CaMP2 fluorescence in glomeruli by odor: response of several glomeruli to activate G-CaMP2 fluorescence
